# In patent US8324280B2, “Treatment of prostate cancer with DDC inhibitor” (The University of British Columbia, priority 2008, dated 2012):
# Columns and labels:
# [1] = tested on: pure neuroendocrine tumour; settings: in combination with other drugs; implanted prostate NE cancer cells; cited from earlier work
# [2] = tested on: LNCaP-DDC xenografts; assay: LNCaP-DDC (DDC overexpressing) tumour xenografts with carbidopa treatment; format: in vivo, mice; settings: 25 mg/kg intraperitoneally daily, Dox
# Method: (§1) LNCaP-DDC and LNCaP-Vector control cells were inoculated subcutaneously (s.c.), after resuspension in 0.1 mL of Matrigel (Becton Dickinson Labware), into two flank regions (2.5×10^6 cells/site) of 6 to 8 week old male athymic nude mice (Harlan Sprague Dawley, Inc.) via a 27-gauge needle under halothane anesthesia. Tumour volume and serum PSA measurements (blood collected from the tail vein) were performed once per week after tumours became palpable. PSA levels were measured by ELISA (ClinPro International) and tumour size was calculated by the formula; length×width×depth×0.5236. Once serum PSA values reached 75-100 ng/mL, mice in both the LNCaP-DDC and LNCaP-Vector control groups were given Dox-treated water (200 μg/mL) and treated with or without carbidopa. Carbidopa was purchased from Sigma and dissolved in DMSO. The solution was diluted in PBS to a final concentration of 10% DMSO and sterilized through a 0.2 μm filter. Carbidopa solution was injected intraperitoneally into half of the mice (25 mg per kg of body weight) for the +carbidopa groups, while the remaining mice received vehicle injections consisting of 10% DMSO in PBS (−carbidopa groups). Injections were carried out daily for the duration of the experiment. […] PSA velocity and tumour growth rate differences were determined by one-way ANOVA and Tukey's multiple comparison test. […]
# [3] = tested on: parental LNCaP xenografts; assay: Parental LNCaP tumour xenografts in castrated mice, progression to androgen-independence; format: in vivo
# Method: Parental LNCaP cells were inoculated subcutaneously (s.c.), after resuspension in 0.1 mL of Matrigel (Becton Dickinson Labware), into two flank regions (2.5×10^6 cells/site) of 6 to 8 week old male athymic nude mice (Harlan Sprague Dawley, Inc.) via a 27-gauge needle under halothane anesthesia. Tumour volume and serum PSA measurements (blood collected from the tail vein) were performed once per week after tumours became palpable. PSA levels were measured by ELISA (ClinPro International) and tumour size was calculated by the formula; length×width×depth×0.5236. Once serum PSA values reached 75-100 ng/mL, mice were castrated and treated with or without carbidopa. Carbidopa was purchased from Sigma and dissolved in DMSO. The solution was diluted in PBS to a final concentration of 10% DMSO and sterilized through a 0.2 μm filter. Carbidopa solution was injected intraperitoneally into half of the mice (25 mg per kg of body weight) for the +carbidopa group, while the remaining mice received vehicle injections consisting of 10% DMSO in PBS (−carbidopa group). Injections were carried out daily for the duration of the experiment. Each animal group contained 5-6 mice. Serum PSA and tumour volume values were measured with progression to androgen-independence and normalized to pretreatment values (set at 100%) to obtain the mean percentage PSA and mean tumour volume of pre-treatment (±SEM). All animal procedures were performed according to the guidelines of the Canadian Council of Animal Care and with appropriate institutional certification. Statistical analysis was performed using the Student's t-test (two-sample equal variance) with JMPIN statistical software (Version 4.0.2, SAS Institute Inc.).
# [4] = tested on: DU 145; settings: cited from earlier work
# [5] = tested on: LNCaP-Vector control xenografts; assay: LNCaP-Vector control tumour xenografts with carbidopa treatment; format: in vivo, mice; settings: 25 mg/kg intraperitoneally daily, Dox, endogenous DDC only
# Method: as §1
# [6] = tested on: LNCaP cells; assay: MTS cell proliferation assay, androgen-dependent LNCaP cells; format: cell-based, human; settings: 50 μM
# Method: Cell proliferation assays were performed using the 3-(4,5-dimethylhiazol-2-yl)-5-(3-carboxymethoxyphenyl)-2-(4-sulfophenyl)-2H-tetrazolium Assay (MTS) according to the manufacturer's protocol, with minor modifications (Promega). LNCaP cells were plated in 96-well plates at a density of 3000 cells per well and incubated in RPMI medium containing 5% CSS for one day. On the following day, the DDC inhibitors, carbidopa (25 and 50 μM) and NSD-1015 (10 μM)±0.1 nM R1881 were added to each well in charcoal-stripped serum (CSS; Hyclone, VWR) RPMI media. The cells were harvested at days 0, 2, 4, 6 and 8, with a medium change every 3 days. Each time point was measured with 6 replicates.
# Student's t-test (two-sample equal variance) was used to evaluate statistically significant differences. All calculated p-values were two-sided and those less than 0.05 were considered statistically significant.
# [7] = tested on: neuroendocrine cancer cell lines; settings: including a carcinoid cancer and a small cell lung cancer cell line; cited from earlier work
compound,measurement,setting,value
"C[C@@](Cc1ccc(O)c(O)c1)(NN)C(=O)O [carbidopa, α-Methyl-dopahydrazine]",reduction of tumour growth,[1],40%
same,PSA velocity (rate of PSA production),"[2]; over 35 days, PSA normalized to pre-treatment 100%",14.7±0.6
same,tumour growth rate,"[2]; over 49 days, volume normalized to pre-treatment 100%",22.5±3
same,decrease in PSA level with treatment versus control group,[3]; 11 weeks,4.3 fold
same,decrease in tumour growth versus control group,[3]; 11 weeks,5.4 fold
same,"tumour volume, of pre-treatment","[3]; castrated mice, 25 mg/kg i.p. daily, 11 weeks",478±97%
same,"serum PSA level, of pre-treatment","[3]; castrated mice, 25 mg/kg i.p. daily, 11 weeks (termination)",167±36%
same,"serum PSA level, of pre-treatment","[3]; castrated mice, 25 mg/kg i.p. daily, week 1",38±5%
same,"serum PSA level, of pre-treatment","[3]; castrated mice, 25 mg/kg i.p. daily, week 10",148±34%
same,increase of tumour volume from pre-treatment volume,[3]; over 11 weeks,about 5 fold
same,effect on proliferation,[4],did not affect proliferation
same,PSA velocity (rate of PSA production),[5]; over 35 days,7.2±1
same,tumour growth rate,[5]; over 49 days,9.8±2
same,reduction of number of cells relative to control non-treated cells,"[6]; day 8, absence of androgen",1.42 fold
same,reduction of number of cells relative to control non-treated cells,"[6]; day 8, presence of androgen (0.1 nM R1881)",1.69 fold
same,lethality to cancer cell lines,[7],lethal to several but not all tested neuroendocrine cancer cell lines
